US20260306525A1, “COMBINATION THERAPY GLUCOCORTICOIDS AND GINSENOSIDE” (FYTAGORAS B.V., priority 2023, published 2026)
Where two headings read alike, the source gives them in different places.

Tests used:
IL1B = assay: qPCR IL1B expression in TNF-α-treated HeLa cells; format: cell-based, human; settings: for IL1B expression (TNF-α induced) / IL1B expression (TNF-α induced), short-term: 6 h; for IL1B expression (TNF-α induced): 0.01 μM beclomethasone, 20 μM Rg1 or combination
Procedure: (§1) HeLa (human cervical cancer) cells were cultured in Dulbecco's Modified Eagle's (DMEM) High Glucose (HG) medium without phenol red supplemented with 10% Fetal Calf Serum (FCS) and 10% Glutamax (Sigma-Aldrich). The cells were maintained at 37° C. and 5% CO2. At 24 h before adding the treatment, the medium was replaced by DMEM HG with 10% charcoal-inactivated serum and 10% Glutamax (Sigma-Aldrich). The cells were exposed to short- and long-term compound treatments. […] Subsequently, TNF-α (10 ng/ml) was added along with the compound treatments for 6 h (this last step was not added in the actinomycin-D and cycloheximide experiments).
(§2) To determine levels of gene expression in zebrafish larvae, 3 dpf larvae were used in both wounded and non-wounded conditions, and after short- and long-term treatments. Groups of 15 larvae were collected in TRIzol reagent (ThermoFisher) and total RNA was isolated using miRNeasy mini kit (Qiagen, Hilden, Germany). For experiments in HeLa cells, cells were seeded in 6 well plates and after treatment, the cells were removed from the wells using TRIzol reagent and mRNA was isolated using miRNeasy mini kit (Qiagen) according to the manufacturer's instructions. The RNA samples were DNAse-treated utilizing the DNA-free™ DNA Removal Kit (ThermoFisher Scientific). The cDNA synthesis was performed using the iScript cDNA synthesis kit (Bio-Rad Laboratories, Hercules, CA, USA) using 1 μg of RNA per sample. For qPCR, 10 μM of forward primer and 10 μM of reverse primer, 12.5 μl of IQ SYBR Green Supermix (Bio-Rad Laboratories), and 2 μl of cDNA were added to the qPCR reaction mixture. […] The qPCR reactions were performed on a MyiQ-single-color real-time PCR detection system (Bio-Rad Laboratories), with initial denaturation for 3 min, 95° C., and 40 cycles of 15 s at 95.5° C., 15 s at 60° C., and 30 s at 72° C. Cycle threshold values (Ct values, i.e. the cycle numbers at which a threshold value of the fluorescence intensity was reached) were determined for each sample. The gene expression level for each sample was normalized using the expression of ppial (peptidylprolyl isomerase Ab (cyclophilin A)) for zebrafish samples, and 18S rRNA for human cells. The fold change per sample (compared to the respective control group) was calculated using the […]Ct method.

il6 [1] = assay: qPCR il6 expression in zebrafish larvae; format: in vivo, zebrafish (Danio rerio); settings: for il6 expression after wounding: 10 μM beclomethasone, 50 μM Rg1 or combination, 4 h after wounding
Procedure: as §2, with “The gene expression level for each sample was normalized using the expression of ppial (peptidylprolyl isomerase Ab (cyclophilin A)) for zebrafish samples, and 18S rRNA for human cells.” left out
To determine mRNA levels of specific genes in zebrafish, 3 dpf larvae were used (wounded and non-wounded) and after 6 h of chemical treatments (2 h pre-wounding, 4 h post-wounding), as indicated. […] Cycle threshold values (Ct values, i.e. the cycle numbers at which a threshold value of the fluorescence intensity was reached) were determined for each sample. […] The fold change per sample (compared to the respective control group) was calculated using the ΔΔCt method.

il6 [2] = settings: previously shown, ref [17]; cited from earlier work
NFKBIA = assay: qPCR NFKBIA expression in HeLa cells (GR transactivation); format: cell-based, human; settings: beclomethasone 1 μM, Rg1 50 μM or combination
Procedure: as §1, §2

MMP9 = assay: qPCR MMP9 expression in HeLa cells; format: cell-based, human; settings: beclomethasone 1 μM, Rg1 20 μM or combination; for MMP9 expression, long-term: 30 h
Procedure: as §1
To determine levels of gene expression in zebrafish larvae, 3 dpf larvae were used in both wounded and non-wounded conditions, and after short- and long-term treatments. Groups of 15 larvae were collected in TRIzol reagent (ThermoFisher) and total RNA was isolated using miRNeasy mini kit (Qiagen, Hilden, Germany). For experiments in HeLa cells, cells were seeded in 6 well plates and after treatment, the cells were removed from the wells using TRIzol reagent and mRNA was isolated using miRNeasy mini kit (Qiagen) according to the manufacturer's instructions. The RNA samples were DNAse-treated utilizing the DNA-free™ DNA Removal Kit (ThermoFisher Scientific). The cDNA synthesis was performed using the iScript cDNA synthesis kit (Bio-Rad Laboratories, Hercules, CA, USA) using 1 μg of RNA per sample. For qPCR, 10 μM of forward primer and 10 μM of reverse primer, 12.5 μl of IQ SYBR Green Supermix (Bio-Rad Laboratories), and 2 μl of cDNA were added to the qPCR reaction mixture. […] Cycle threshold values (Ct values, i.e. the cycle numbers at which a threshold value of the fluorescence intensity was reached) were determined for each sample. […] The fold change per sample (compared to the respective control group) was calculated using the […]Ct method.

SGK1 = assay: qPCR SGK1 expression in HeLa cells (GR transactivation); format: cell-based, human; settings: beclomethasone 1 μM, Rg1 50 μM or combination
Procedure: as §1, §2

zebrafish embryos = assay: Fish Embryo Acute Toxicity Test (FET); settings: 0-120 hpf
Procedure: Fish Embryo Acute Toxicity Test (FET) was performed to determine the tolerated doses of the studied compounds. […] A range of three test concentrations (100, 120, and 150 μM) of Rg1, Rh1, and F1 and (25, 50, and 75M) of PPT was used. […] Stock solutions were made in DMSO, and final dilutions in egg water (60 μg/mL Instant Ocean Sea salts and 0.0025% methylene blue), such that the final DMSO concentration were 0.01%. The following controls were used: a negative control (nC, egg water), a solvent control (sC, 0.01% DMSO in egg water), and positive control (pC), 4 mg/L 3,4-dichloroaniline (Sigma-Aldrich, St. Louis, MO, USA) in egg water.
Embryos were collected around at 1.5 hpf and distributed over standard twenty-four well plates (10 embryos per well), with each well containing 2 mL of test solution. […] Five 24-well plates were prepared, each with 3 wells containing the Rg1, F1, or Rh1 solutions (100, 120, 150 μM), 3 wells containing the PPT (25, 50, and 75 μM), two for nC and sC, and one for pC (on each plate, 7 wells remained empty). All solutions were refreshed daily.
The plates were kept at a temperature between 26 and 27° C. and exposed to a 12 h light and 12 h dark cycle. At 96, and 120 hpf, the average survival rate (in %) for all experimental groups was determined. Additionally, hatching was recorded at 48 and 72 hpf. Survival rates for the studied compound and pC-treated groups from the five individual plates were averaged.

[3] = beclomethasone 1 μM without or with Rg1 20 μM, TNF-α

Compound: C[C@H]1C[C@H]2[C@@H]3CCC4=CC(=O)C=C[C@]4(C)[C@@]3(Cl)[C@@H](O)C[C@]2(C)[C@@]1(O)C(=O)CO [beclomethasone, reference compound]
- IL1B expression (TNF-α induced) (IL1B): slightly suppressed
- IL1B expression time course, short-term (IL1B; beclomethasone 0.01 μM, TNF-α): hardly showed an effect
- IL1B expression time course, long-term (IL1B; [3]): did not show a significant suppressive effect on the expression of IL1B
- IL1B expression time course, short-term (IL1B; [3]): exhibited a strong suppressive effect on the IL1B expression
- IL1B expression (TNF-α induced), short-term (IL1B; beclomethasone 0.1 and 1 μM): strongly suppressed
- IL1B expression (TNF-α induced), long-term (IL1B; beclomethasone 0.1 and 1 μM, 30 h): a significant reduction in the suppressive effects of these high doses of beclomethasone was observed
- il6 expression after wounding (il6 [1]): slightly decreased the expression of these genes
- il6 expression (il6 [1]; Example 2, wounded larvae): suppressed the expression levels of il1b, il6 and mmp9, similarly to Bec
- il6 expression after wounding (il6 [2]): transrepressed
- NFKBIA expression, long-term (NFKBIA): reduced over time
- NFKBIA expression, short-term (NFKBIA): strongly increased the expression of these genes after short-term treatment
- MMP9 expression, long-term (MMP9): the suppressive effects of beclomethasone were significantly reduced after long-term treatment
- SGK1 expression, long-term (SGK1): reduced over time
- SGK1 expression, short-term (SGK1): strongly increased the expression of these genes after short-term treatment

Compound: CC(C)=CCC[C@](C)(O[C@@H]1O[C@H](CO)[C@@H](O)[C@H](O)[C@H]1O)[C@H]1CC[C@]2(C)[C@@H]1[C@H](O)C[C@@H]1[C@@]3(C)CC[C@H](O)C(C)(C)[C@@H]3[C@@H](O[C@@H]3O[C@H](CO)[C@@H](O)[C@H](O)[C@H]3O)C[C@]12C [Rg1, (3β,6α, 12β)-3,12-Dihydroxydammar-24-ene-6,20-diyl bis-β-D-glucopyranoside]
- IL1B expression (TNF-α induced) (IL1B): slightly suppressed
- IL1B expression (TNF-α induced), short-term (IL1B; Rg1 20, 100 and 500 μM): caused a decrease in IL1B expression after short-term treatment
- IL1B expression (TNF-α induced), long-term vs short-term (IL1B; Rg1 20, 100 and 500 μM, 30 h): not significantly different after long-term treatment
- il6 expression after wounding (il6 [1]): slightly decreased the expression of these genes
- il6 expression after wounding (il6 [2]): transrepressed
- NFKBIA expression, long-term (NFKBIA): did not affect the expression of these genes
- NFKBIA expression, short-term (NFKBIA): did not affect the expression of these genes
- MMP9 expression, short-term (MMP9; 6 h): slightly suppressed
- MMP9 expression, long-term (MMP9): more strongly after long-term treatment
- concentration until which no effects on hatching and survival were observed (zebrafish embryos): 100 µM
- concentration with minimal effects on hatching and survival (zebrafish embryos): 120 µM
- SGK1 expression, long-term (SGK1): did not affect the expression of these genes
- SGK1 expression, short-term (SGK1): did not affect the expression of these genes

Compound: CC(C)=CCC[C@](C)(O)[C@H]1CC[C@]2(C)[C@@H]1[C@H](O)C[C@@H]1[C@@]3(C)CC[C@H](O)C(C)(C)[C@@H]3[C@@H](O[C@@H]3O[C@H](CO)[C@@H](O)[C@H](O)[C@H]3O)C[C@]12C [Rh1]
- concentration until which no effects on hatching and survival were observed (zebrafish embryos): 100 µM
- concentration with minimal effects on hatching and survival (zebrafish embryos): 120 µM
